Measurements as given in ChEMBL document CHEMBL1133232, “The design and synthesis of thrombin inhibitors: analogues of MD805 containing non-polar surrogates for arginine at the P1 position” (Bioorg Med Chem Lett, 2000).
pKi: −log10 of the molar value.

Experiments:
Prothrombin = Prothrombin (Homo sapiens, UniProt P00734); experiment: Compound was evaluated for its inhibitory activity against Thrombin
Coagulation factor X = Coagulation factor X (Homo sapiens, UniProt P00742); experiment: Compound was evaluated for its inhibitory activity against Coagulation factor X
Kallikrein-1 = Kallikrein-1 (Homo sapiens, UniProt P06870); experiment: Compound was evaluated for its inhibitory activity against kallikrein
Plasminogen = Plasminogen (Homo sapiens, UniProt P00747); experiment: Compound was evaluated for its inhibitory activity against plasmin
Serine protease 1 = Serine protease 1 (Homo sapiens, UniProt P07477); experiment: Compound was evaluated for its inhibitory activity against Trypsin
Sequence of Serine protease 1 (P07477 whole entry): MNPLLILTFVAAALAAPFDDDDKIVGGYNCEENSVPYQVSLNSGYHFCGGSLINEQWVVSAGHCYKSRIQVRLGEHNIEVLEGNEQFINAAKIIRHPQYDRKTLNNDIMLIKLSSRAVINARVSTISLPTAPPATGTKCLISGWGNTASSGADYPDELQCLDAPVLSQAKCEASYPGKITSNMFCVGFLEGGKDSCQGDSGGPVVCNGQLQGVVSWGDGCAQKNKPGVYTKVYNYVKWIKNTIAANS

Sequence of Coagulation factor X (P00742 41-179 limits assumed): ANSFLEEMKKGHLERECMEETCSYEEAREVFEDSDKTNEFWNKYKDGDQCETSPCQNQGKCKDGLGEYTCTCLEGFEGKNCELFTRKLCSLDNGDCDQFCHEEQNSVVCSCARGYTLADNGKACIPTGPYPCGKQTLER
Sequence of Coagulation factor X (P00742 235-488 limits assumed): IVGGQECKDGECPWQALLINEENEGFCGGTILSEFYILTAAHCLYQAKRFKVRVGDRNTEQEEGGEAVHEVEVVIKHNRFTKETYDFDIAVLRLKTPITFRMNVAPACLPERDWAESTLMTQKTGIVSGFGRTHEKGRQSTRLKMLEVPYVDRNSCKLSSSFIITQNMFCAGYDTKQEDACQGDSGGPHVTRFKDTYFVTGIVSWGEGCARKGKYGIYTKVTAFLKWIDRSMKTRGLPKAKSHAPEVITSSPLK
Sequence of Kallikrein-1 (P06870 whole entry): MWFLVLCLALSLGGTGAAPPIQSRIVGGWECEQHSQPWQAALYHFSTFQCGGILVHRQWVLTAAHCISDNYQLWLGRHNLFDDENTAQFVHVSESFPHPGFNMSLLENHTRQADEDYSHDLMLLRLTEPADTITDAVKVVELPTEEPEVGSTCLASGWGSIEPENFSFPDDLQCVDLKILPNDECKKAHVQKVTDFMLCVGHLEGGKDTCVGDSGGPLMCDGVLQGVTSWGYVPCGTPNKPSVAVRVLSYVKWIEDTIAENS
Sequence of Plasminogen (P00747 97-580 limits assumed): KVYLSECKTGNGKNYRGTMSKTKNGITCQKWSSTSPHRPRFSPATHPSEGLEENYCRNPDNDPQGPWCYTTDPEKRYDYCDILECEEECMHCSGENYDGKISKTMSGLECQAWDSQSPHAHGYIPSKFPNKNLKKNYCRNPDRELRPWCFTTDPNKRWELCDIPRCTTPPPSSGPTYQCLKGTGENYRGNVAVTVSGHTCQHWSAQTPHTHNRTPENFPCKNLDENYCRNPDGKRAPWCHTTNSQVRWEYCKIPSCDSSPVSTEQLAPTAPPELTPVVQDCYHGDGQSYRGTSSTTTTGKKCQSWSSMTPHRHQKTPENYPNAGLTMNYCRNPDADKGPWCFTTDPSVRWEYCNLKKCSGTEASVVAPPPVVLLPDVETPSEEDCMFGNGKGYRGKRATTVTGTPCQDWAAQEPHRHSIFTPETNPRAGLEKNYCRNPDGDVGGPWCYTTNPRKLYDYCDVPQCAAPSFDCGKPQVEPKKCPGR
Sequence of Plasminogen (P00747 581-810 limits assumed): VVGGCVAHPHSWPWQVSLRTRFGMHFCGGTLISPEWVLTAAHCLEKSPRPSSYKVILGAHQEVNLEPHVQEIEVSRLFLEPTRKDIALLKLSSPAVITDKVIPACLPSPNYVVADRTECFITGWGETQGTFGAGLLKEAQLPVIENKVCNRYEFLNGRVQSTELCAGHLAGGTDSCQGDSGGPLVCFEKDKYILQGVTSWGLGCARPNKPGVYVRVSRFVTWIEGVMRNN

Row | pKi (Prothrombin) | SMILES | pKi (Coagulation factor X) | pKi (Kallikrein-1) | pKi (Plasminogen) | pKi (Serine protease 1)
1 | 4.71 | CC1(C)CNc2c(cccc2S(=O)(=O)N[C@@H](Cc2cccnc2)C(=O)N2CCC(CCO)CC2)C1 | – | – | – | –
2 | 4.33 | CC1CNc2c(cccc2S(=O)(=O)N[C@@H](CCc2ccccc2)C(=O)N2CCC(CCO)CC2)C1 (some centres undefined) | – | – | – | –
3 | 5.48 | CC1(C)CNc2c(cccc2S(=O)(=O)NC(Cc2nc(-c3ccccc3)cs2)C(=O)N2CCC(CCO)CC2)C1 (centres undefined) | – | – | – | –
4 | 5.51 | CC1CNc2c(cccc2S(=O)(=O)N[C@@H](Cc2nc3ccccc3o2)C(=O)N2CCC(CCO)CC2)C1 (some centres undefined) | – | – | – | –
5 | 6.09 | CC1(C)CNc2c(cccc2S(=O)(=O)NC(Cc2nc3ccncc3s2)C(=O)N2CCC(CCF)CC2)C1 (centres undefined) | – | – | – | –
6 | 5.34 | CC1(C)CNc2c(cccc2S(=O)(=O)NC(Cc2nc3cncnc3s2)C(=O)N2CCC(CCF)CC2)C1 (centres undefined) | – | – | – | –
7 | 5.66 | Cc1csc(CC(NS(=O)(=O)c2cccc3c2NCC(C)(C)C3)C(=O)N2CCC(CCO)CC2)n1 (centres undefined) | – | – | – | –
8 | 6.12 | CC1(C)CNc2c(cccc2S(=O)(=O)NC(Cc2nc(CN)cs2)C(=O)N2CCC(CCO)CC2)C1 (centres undefined) | – | – | – | –
9 | 5.80 | CC1CNc2c(cccc2S(=O)(=O)N[C@@H](Cc2c[nH]c3ccccc23)C(=O)N2CCC(CCO)CC2)C1 (some centres undefined) | – | – | – | –
10 | 6.34 | CC(=O)OCCC1CCN(C(=O)C(Cc2nc3ccccc3[nH]2)NS(=O)(=O)c2cccc3c2NCC(C)(C)C3)CC1 (centres undefined) | – | – | – | –
11 | 7.10 | CC1(C)CNc2c(cccc2S(=O)(=O)NC(Cc2nc3ccccc3s2)C(=O)N2CCC(CCO)CC2)C1 (centres undefined) | – | – | – | –
12 | 7.55 | CC1(C)CNc2c(cccc2S(=O)(=O)NC(Cc2nc3ccccc3s2)C(=O)N2CCC(CCF)CC2)C1 (stereo in doubt) | – | – | – | –
13 | 7.59 | CC1(C)CNc2c(cccc2S(=O)(=O)NC(Cc2nc3ccccc3s2)C(=O)N2CCC(CCF)CC2)C1 (stereo in doubt; 26) | – | – | – | –

Row | SMILES | pKi (Prothrombin) | pKi (Coagulation factor X) | pKi (Kallikrein-1) | pKi (Plasminogen) | pKi (Serine protease 1)
14 | CC1(C)CNc2c(cccc2S(=O)(=O)N[C@@H](CSCCCN)C(=O)N2CCC(CCF)CC2)C1 | 6.90 | 4.06 | < 4.06 | 5.40 | 5.88
15 | CC1(C)CNc2c(cccc2S(=O)(=O)N[C@@H](CSCCCN)C(=O)N2CCC(CCO)CC2)C1 | 6.55 | 4.06 | < 4.06 | 5.21 | 5.75
16 | CCC1CCN(C(=O)C(Cc2nc3ccccc3s2)NS(=O)(=O)c2cccc3c2NCC(C)(C)C3)CC1 (centres undefined) | 6.61 | 4.04 | 4.04 | 3.62 | 3.59
17 | CC1CNc2c(cccc2S(=O)(=O)N[C@@H](Cc2nc3ccccc3s2)C(=O)N2CCC(CCO)CC2)C1 (stereo in doubt; 23) | 6.93 | – | – | – | –
18 | CC1CNc2c(cccc2S(=O)(=O)N[C@@H](Cc2nc3ccccc3s2)C(=O)N2CCC(CCO)CC2)C1 (stereo in doubt; 33) | 6.93 | 4.35 | < 4.35 | 3.96 | 3.90
